Experiment [1] has as its system NMDA receptor. The following applies: C. Carter et al, J. Pharm Exp. Ther. 1988; cited from earlier work.
Experiment [2] deals with T1, sigma receptor (Cavia porcellus, UniProt Q60492).
T1 construct: Crude P2 membrane fractions were prepared from frozen; tissue Pel-Freeze, Rogers, Ark; (frozen guinea pig brains); host or cells: guinea pig brain minus cerebella, crude synaptosomal (P2) membranes
The format is binding, guinea pig. As to conditions: read-out: Ki([3H](+)-Pent).

T1 sequence (Q60492 whole entry): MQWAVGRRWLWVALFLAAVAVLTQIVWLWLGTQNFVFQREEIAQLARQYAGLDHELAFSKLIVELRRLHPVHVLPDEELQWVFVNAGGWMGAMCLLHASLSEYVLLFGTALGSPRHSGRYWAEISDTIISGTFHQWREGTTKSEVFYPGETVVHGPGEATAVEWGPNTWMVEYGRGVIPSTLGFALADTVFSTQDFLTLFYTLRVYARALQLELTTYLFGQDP

Turning to “1-(4-chlorophenyl)-2-[1-(4-fluorophenyl)-piperidinyl]ethanol”, the NMDA receptor antagonism entry in experiment [1] was “non-competitive NMDA receptor antagonists”.

Consider `Clc1ccc(CCN2CCCC(N3CCCC3)C2)cc1Cl` (stereo not drawn) [Compound No. 1, 3-(1-Pyrrolidinyl)-1-[2-(3,4-dichlorophenyl)ethyl]piperidine], for which the Ki in experiment [2] is 3.56 ± 1.56 nM.

With `CC(C(O)c1ccc(O)cc1)N1CCC(Cc2ccccc2)CC1` (stereo not drawn) [ifenprodil], in experiment [1], the NMDA receptor antagonism result is reported as “non-competitive NMDA receptor antagonists”.

Source of the values: patent US5856318A (priority 1997, dated 1999).
